A word on the melting point: it is the temperature, or range, at which the solid turns liquid.

Where a name gives a salt, the structure may show the parent alone.

As to `COc1ccccc1S[C@H](c1ccc(Cl)cc1)[C@H]1CNCCO1` (single isomer, unassigned) (as salt: hydrochloride) [Example 12], the melting point lay in the range of 238 to 241 °C.
`COc1ccccc1S[C@H](c1cccc(F)c1)[C@H]1CNCCO1` (single isomer, unassigned) (as salt: hydrochloride) [Example 13] came in with a melting point of 233 to 234 °C.
In the case of `CCOc1ccccc1S[C@H](c1cccc(F)c1)[C@H]1CNCCO1` (single isomer, unassigned) (as salt: hydrochloride) [Example 14] it was 211 to 215 °C; in that of `Fc1cccc([C@@H](Sc2ccccc2Cl)[C@H]2CNCCO2)c1` (single isomer, unassigned) (as salt: hydrochloride) [Example 15], 183 to 187 °C.
